What was measured:
left motor cortex = assay: Inactivation of the motor cortex by muscimol microinjection in overground-trained SCI rats; type: in vivo, rat; details: overground-trained rats with T7/T10 staggered hemisections; intra-cortical microinjection into left motor cortex (800 nl, 4.5 mg/Kg); p<0.01; functionality of lumbosacral circuits uncompromised
Method: (§1) To ablate T8-T9 neurons, we infused NMDA (1% in dH2O) into 14 sites (depth 1 mm, total volume 3 μl) covering spinal levels T8-T9. Rats were tested 5 days post-lesion, and sacrificed on the following day. The ablation of neurons was verified post mortem on tissue sections stained with mouse anti-NeuN (1:500, Chemicon, USA) antibodies. To inactivate the motor cortex, we injected the GABA-agonist muscimol intra-cortically (800 nl, 4.5 mg/Kg). Five days prior to experiments, we stereotaxically implanted a catheter (OD: 0.61 mm, ID: 0.28 mm) into the left motor cortex at a depth of 1.5 mm. Proper catheter location was verified post mortem on tissue sections stained (Invitrogen, USA) for fluorescent Nissl visualization.
Contrary to primates, the rodent motor cortex is not essential to produce locomotion (G. Courtine et al., Can experiments in nonhuman primates expedite the translation of treatments for spinal cord injury in humans? Nature medicine 13, 561 (May, 2007)). […] First, we implanted stimulating epidural electrodes over the left motor cortex to verify that the reorganization of neuronal pathways re-established connectivity across the lesion. […] Second, we implanted a microwire array in the vicinity of CST neurons projecting to T8-T9 segments, and recorded neuronal modulations during voluntary locomotion in overground-trained rats (n=3). […]

T8-T9 neurons = assay: Ablation of T8-T9 neurons by NMDA infusion in overground-trained SCI rats; type: in vivo, rat; details: overground-trained rats with T7/T10 staggered hemisections, NMDA 1% in dH2O into 14 sites, tested 5 days post-lesion, p<0.01, functionality of lumbosacral circuits uncompromised
Method: as §1
Anatomical examinations highlighted an extensive remodelling of supraspinal and intraspinal projections in rats that regained voluntary locomotion. We first conducted retrograde tract tracing from L1-L2 locomotor centers. We found a significant increase (p<0.01) in the number of labeled neurons in intermediate and ventral laminae of T8-T9 segments in both overground-trained and treadmill-trained rats compared to non-trained animals. Analysis of the activity-dependent marker cfos after continuous overground locomotion confirmed that the labeled neurons were active during walking. […]

Q: Which “effect on voluntary hindlimb locomotion” value (left motor cortex) does the source give for NCc1cc(=O)[nH]o1 [Muscimol, muscimol] here?
A: The value was “immediately suppressed voluntary hindlimb locomotion”.

Q: For CN[C@H](CC(=O)O)C(=O)O [NMDA, N-methyl-D-aspartic acid], which “effect on regained voluntary locomotion” value (T8-T9 neurons) is on record?
A: Its value is “abolished the regained voluntary locomotion”.
